Drawing on US9334263B2, “Compositions useful for treating disorders related to kit” (BLUEPRINT MEDICINES CORPORATION, priority 2013, dated 2016), this text covers IC50 for 43 molecules.

One assay addresses T1, wild type Kit (Homo sapiens, UniProt P10721).
T1 construct: purchased Carna Bioscience 08-156
Kind of assay: Kit wild type assay at Km (Caliper electrophoretic mobility shift). Type of assay: biochemical. Conditions: 400 uM ATP, 25 C, 90 minutes; read-out: WT KIT. On the procedure:
In order to assess the activity of chemical compounds against the relevant kinase of interest, the Caliper LifeSciences electrophoretic mobility shift technology platform is used. Fluorescently labeled substrate peptide is incubated in the presence of kinase and ATP so that a […] proportion of the peptide is phosphorylated. At the end of the reaction, the mix of phosphorylated (product) and non-phosphorylated (substrate) peptides are passed through the microfluidic system of the Caliper EZ Reader 2, under an applied potential difference. The presence of the phosphate group on the product peptide provides a difference in mass and charge between those of the substrate peptide, resulting in a separation of the substrate and product pools in the sample. As the pools pass a LEDS within the instrument, these pools are detected and resolved as separate peaks. The ratio between these peaks therefore reflects the activity of the chemical matter at that concentration in that well, under those conditions.
The reaction was stopped by the addition of 70 ul of Stop buffer (100 mM HEPES pH 7.5, 0.015% Brij 35, 35 mM EDTA and 0.2% of Coating Reagent 3 (Caliper Lifesciences)). The plate was then read on a Caliper EZReader 2 (protocol settings: −1.9 psi, upstream voltage −700, downstream voltage −3000, post sample sip 35 s).

In a further assay the target is T2, D816V Kit (Homo sapiens, UniProt P10721, D816V).
T2 construct: purchased Carna Bioscience 08-156
Nature of the assay: Kit D816V assay at Km (Caliper electrophoretic mobility shift). Conditions: 15 uM ATP, 25 C, 90 minutes. Type of assay: biochemical. Summed up: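 Read-out is the ratio of phosphorylated to unphosphorylated fluorescent peptide, resolved by mobility shift on a Caliper EZ Reader 2.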

The target in assay [1] is T3, Kit D816V (HMC1.2 cells, Kit V560G and D816V) (Homo sapiens, UniProt P10721, D816V/V560G).
T3 construct: endogenous in cells; host or cells: HMC1.2 cells
Nature of the assay: HMC1.2 autophosphorylation assay (AlphaLISA, phospho-Y719 c-Kit). Type of assay: cell-based. Conditions: Kit autophosphorylation at tyrosine 719, 90 minutes, read-out: Cellular Activity. An outline of the steps: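 AlphaScreen signal comes from lysed HMC1.2 cells incubated with phospho-Y719 and total c-Kit antibodies (15 nM final), acceptor beads and then streptavidin donor beads, 2 h each at room temperature. Beforehand, cells deprived of serum overnight received compound for 90 min as a 10-point series, 25 uM–95.4 pM, 0.25% DMSO.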

T2 sequence (P10721 26-976 D816V): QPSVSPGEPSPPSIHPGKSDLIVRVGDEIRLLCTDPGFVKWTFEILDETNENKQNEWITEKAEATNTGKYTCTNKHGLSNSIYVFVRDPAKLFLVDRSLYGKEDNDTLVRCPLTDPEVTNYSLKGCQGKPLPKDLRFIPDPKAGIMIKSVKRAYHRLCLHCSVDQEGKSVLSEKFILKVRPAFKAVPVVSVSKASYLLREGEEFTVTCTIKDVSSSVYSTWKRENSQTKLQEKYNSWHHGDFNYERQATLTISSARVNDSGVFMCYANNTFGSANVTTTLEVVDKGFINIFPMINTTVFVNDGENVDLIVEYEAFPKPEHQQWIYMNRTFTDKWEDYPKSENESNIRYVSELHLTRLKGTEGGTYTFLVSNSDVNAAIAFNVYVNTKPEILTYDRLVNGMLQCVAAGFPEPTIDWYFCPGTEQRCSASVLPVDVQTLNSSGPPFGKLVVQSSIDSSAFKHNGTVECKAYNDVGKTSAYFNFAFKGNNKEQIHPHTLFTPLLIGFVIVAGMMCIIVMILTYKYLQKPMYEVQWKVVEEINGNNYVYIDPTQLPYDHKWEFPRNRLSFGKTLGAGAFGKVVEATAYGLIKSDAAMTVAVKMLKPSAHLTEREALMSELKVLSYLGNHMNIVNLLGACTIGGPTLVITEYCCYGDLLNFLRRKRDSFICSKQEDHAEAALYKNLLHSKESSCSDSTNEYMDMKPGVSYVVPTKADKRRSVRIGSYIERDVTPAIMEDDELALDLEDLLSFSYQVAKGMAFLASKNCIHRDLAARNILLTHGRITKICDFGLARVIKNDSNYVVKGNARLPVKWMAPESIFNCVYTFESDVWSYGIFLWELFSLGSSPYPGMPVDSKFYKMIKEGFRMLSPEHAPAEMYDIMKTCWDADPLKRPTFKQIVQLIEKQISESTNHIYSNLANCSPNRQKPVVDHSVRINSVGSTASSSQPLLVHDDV
T3 sequence (P10721 26-976 V560G/D816V): as the sequence (P10721 26-976 D816V) above, with V535G counted along it
T1 sequence (P10721 26-976): as the sequence (P10721 26-976 D816V) above, with V791D counted along it

`c1ccc(Nc2cnc(N3CCN(c4ncnc(Nc5ccccc5)n4)CC3)nc2)cc1` [Compound 9]: the figures for the IC50 at wild type Kit and at D816V Kit were 100 to 1000 nM and 10 to 100 nM, respectively.

As to `c1ccc(Cc2cnc(N3CCN(c4ncnc(NCCCN5CCOCC5)n4)CC3)nc2)cc1` [Compound 37], the IC50 at wild type Kit is more than 1000 nM; at D816V Kit, more than 100 nM.

As for `CS(=O)(=O)c1ccc(Nc2ncnc(N3CCN(C(=O)Nc4ccc(C#N)cc4)CC3)n2)cc1` [Compound 40], the results for the IC50 at wild type Kit and at D816V Kit were 11 to 100 nM and 10 to 100 nM, respectively.

As to `COc1cc(Nc2ncnc(N3CCN(c4ncc(Cc5ccccc5)cn4)CC3)n2)cc(OC)c1` [Compound 54], the IC50 at wild type Kit lay within 100 to 1000 nM; at D816V Kit, 1.01 to 10 nM.

`C[C@H](c1ccccc1)c1cnc(N2CCN(c3ncnc(Nc4ccc(N5CCC[C@@H](O)C5)cc4)n3)CC2)nc1` [Compound 223]: the IC50 in assay [1] was 10 to 100 nM; on D816V Kit, 1.01 to 10 nM.

For `C[C@@H](c1ccccc1)c1cnc(N2CCN(c3ncnc(Nc4ccc(N5CCC[C@@H](O)C5)cc4)n3)CC2)nc1` [Compound 224], the IC50 in assay [1] was 10 to 100 nM; at D816V Kit it was less than 1 nM.

In the case of `CC1(O)CCCN(c2ccc(Nc3ncnc(N4CCN(c5ncc(Cc6ccccc6)cn5)CC4)n3)cc2)C1` (centres unmarked) [Compound 225], the IC50 lay in the range of 10 to 100 nM in assay [1] and 1.01 to 10 nM on D816V Kit.

Turning to `C[C@@]1(O)CCCN(c2ccc(Nc3ncnc(N4CCN(c5ncc(Cc6ccccc6)cn5)CC4)n3)cc2)C1` [Compound 227], the IC50 in assay [1] was 10 to 100 nM; at D816V Kit, 1.01 to 10 nM.

In the case of `Cc1cc(N2CCNCC2)ccc1Nc1ncnc(N2CCN(c3ncc(Cc4ccccc4)c(N)n3)CC2)n1` [Compound 228], the IC50 in assay [1] was in the range of 100 to 1000 nM; on D816V Kit it was 1.01 to 10 nM.

For the molecule `Nc1nc(N2CCN(c3ncnc(Nc4ccc5c(c4)CN(CCO)CC5)n3)CC2)ncc1Cc1ccccc1` [Compound 229], the figures for the IC50 (in assay [1]; at D816V Kit) were less than 10 nM and less than 1 nM, respectively.

Regarding `COc1cc(N2CCNCC2)ccc1Nc1ncnc(N2CCN(c3ncc(Cc4ccccc4)cn3)CC2)n1` [Compound 230], the IC50 in assay [1] was 1000 to 10000 nM; at D816V Kit it was 1.01 to 10 nM.

Take `Nc1nc(N2CCN(c3ncnc(Nc4ccc(N5CCC[C@@H](O)C5)cc4)n3)CC2)ncc1Cc1ccccc1` [Compound 231]: the values for the IC50 (in assay [1]; on D816V Kit) were 10 to 100 nM and less than 1 nM, respectively.

Turning to `O[C@@H]1CCN(c2ccc(Nc3ncnc(N4CCN(c5ncc(Cc6ccccc6)cn5)CC4)n3)cc2)C[C@@H]1O` [Compound 232], the IC50 in assay [1] was 10 to 100 nM; on D816V Kit it was less than 1 nM.

Consider `c1ccc(C2(c3cnc(N4CCN(c5ncnc(Nc6cnn(C[C@@H]7CNCCO7)c6)n5)CC4)nc3)CC2)cc1` [Compound 233], for which the IC50 fell in the range of 10 to 100 nM in assay [1] and 1.01 to 10 nM at D816V Kit.

With `C[C@@](O)(c1ccccc1)c1cnc(N2CCN(c3ncnc(Nc4ccc(N5CCOCC5)cc4)n3)CC2)nc1` [Compound 234], the IC50 in assay [1] was 10 to 100 nM; on D816V Kit, 1.01 to 10 nM.

For `C[C@](O)(c1ccccc1)c1cnc(N2CCN(c3ncnc(Nc4ccc(N5CCOCC5)cc4)n3)CC2)nc1` [Compound 235], the IC50 is less than 10 nM in assay [1] and less than 1 nM on D816V Kit.

Regarding `OC1(c2ccc(Nc3ncnc(N4CCN(c5ncc(Cc6ccccc6)cn5)CC4)n3)cc2)CCCNC1` (centres unmarked) [Compound 236], the results for the IC50 (in assay [1]; on D816V Kit) were less than 10 nM and less than 1 nM, respectively.

As for `Fc1cc(O[C@H]2CCCNC2)ccc1Nc1ncnc(N2CCN(c3ncc(Cc4ccccc4)cn3)CC2)n1` [Compound 238], the IC50 fell in the range of 100 to 1000 nM in assay [1] and 1.01 to 10 nM at D816V Kit.

`O[C@H]1CCCN(c2ccc(Nc3ncnc(N4CCN(c5ncc(Cc6ccc(F)cc6)cn5)CC4)n3)cc2)C1` [Compound 240]: the IC50 in assay [1] is less than 10 nM; on D816V Kit it was 1.01 to 10 nM.

Consider `CCN1CCO[C@H](Cn2cc(Nc3ncnc(N4CCN(c5ncc(Cc6ccccc6)cn5)CC4)n3)cn2)C1` [Compound 241], for which the figures for the IC50 (in assay [1]; at D816V Kit) were 10 to 100 nM and 1.01 to 10 nM, respectively.

`Cc1c(Nc2ncnc(N3CCN(c4ncc(Cc5ccccc5)cn4)[C@H](C)C3)n2)cnn1C[C@@H]1CNCCO1` [Compound 242]: the IC50 in assay [1] is 10 to 100 nM; on D816V Kit, less than 1 nM.

Consider `Cc1c(Nc2ncnc(N3CCN(c4ncc(C(C)c5ccccc5)cn4)CC3)n2)cnn1C[C@@H]1CNCCO1` (some centres unmarked) [Compound 243], for which the IC50 in assay [1] fell in the range of 10 to 100 nM; at D816V Kit it was 1.01 to 10 nM.

Turning to `CC(C)(c1ccccc1)c1cnc(N2CCN(c3ncnc(Nc4cnn(C[C@@H]5CNCCO5)c4)n3)CC2)nc1` [Compound 244], the IC50 in assay [1] is 10 to 100 nM; at D816V Kit, less than 1 nM.

On to `Cc1c(Nc2ncnc(N3CCN(c4ncc(Cc5ccccc5)c(N)n4)CC3)n2)cnn1C[C@@H]1CNCCO1` [Compound 245], for which the values for the IC50 (in assay [1]; on D816V Kit) were 10 to 100 nM and less than 1 nM, respectively.

In the case of `COc1nc(N2CCN(c3ncnc(Nc4cnn(C[C@@H]5CNCCO5)c4)n3)CC2)ncc1Cc1ccccc1` [Compound 246], the IC50 in assay [1] lay within 1000 to 10000 nM; on D816V Kit, 1.01 to 10 nM.

In the case of `OC[C@@H]1CN(c2ncnc(Nc3cnn(CC4CNCCO4)c3)n2)CCN1c1ncc(Cc2ccccc2)cn1` (some centres unmarked) [Compound 248], the IC50 in assay [1] is 10 to 100 nM; at D816V Kit, less than 1 nM.

Consider `COc1cccc(Cc2cnc(N3CCN(c4ncnc(Nc5cnn(C[C@@H]6CNCCO6)c5)n4)CC3)nc2)c1` [Compound 249], for which the IC50 in assay [1] is 10 to 100 nM; on D816V Kit it was 1.01 to 10 nM.

In the case of `CC(O)(c1ccccc1)c1cnc(N2CCN(c3ncnc(Nc4cnn(C[C@@H]5CNCCO5)c4)n3)CC2)nc1` (some centres unmarked) [Compound 250], the IC50 in assay [1] was 10 to 100 nM; at D816V Kit, less than 1 nM.

With `Fc1ccccc1Sc1cnc(N2CCN(c3ncnc(Nc4ccc(C5CNCCO5)cc4)n3)CC2)nc1` (centres unmarked) [Compound 251], the IC50 was in the range of 100 to 1000 nM in assay [1] and 1.01 to 10 nM on D816V Kit.

As to `CN(C)S(=O)(=O)Cc1ccc(Nc2ncnc(N3CCN(c4ncc(Cc5ccccc5)cn4)CC3)n2)cc1` [Compound 252], the IC50 in assay [1] is 10 to 100 nM; at D816V Kit, 1.01 to 10 nM.

Turning to `Fc1ccc(OCc2cnc(N3CCN(c4ncnc(Nc5cnn(C[C@@H]6CNCCO6)c5)n4)CC3)nc2)cc1` [Compound 253], the results for the IC50 (in assay [1]; on D816V Kit) were 10 to 100 nM and 1.01 to 10 nM, respectively.

On to `Fc1ccccc1Sc1cnc(N2CCN(c3ncnc(Nc4cnn(C[C@@H]5CNCCO5)c4)n3)CC2)nc1` [Compound 255], for which the IC50 is 10 to 100 nM in assay [1] and less than 1 nM on D816V Kit.

Take `Fc1cccc(Sc2cnc(N3CCN(c4ncnc(Nc5cnn(C[C@@H]6CNCCO6)c5)n4)CC3)nc2)c1` [Compound 257]: the figures for the IC50 (in assay [1]; at D816V Kit) were 100 to 1000 nM and 1.01 to 10 nM, respectively.

Turning to `Fc1ccc(Sc2ncc(N3CCN(c4ncnc(Nc5cnn(C[C@@H]6CNCCO6)c5)n4)CC3)nn2)cc1` [Compound 258], the IC50 was in the range of 10 to 100 nM in assay [1] and 1.01 to 10 nM at D816V Kit.

Turning to `CC(C)(O)CN1CCc2ccc(Nc3ncnc(N4CCN(c5ncc(Cc6ccccc6)cn5)CC4)n3)cc2C1` [Compound 262], the values for the IC50 (in assay [1]; at D816V Kit) were 10 to 100 nM and less than 1 nM, respectively.

`Cc1c(Nc2ncnc(N3CCN(c4ncc(Sc5ccccc5F)cn4)[C@H](C)C3)n2)cnn1C[C@H](O)CO` [Compound 264]: the IC50 in assay [1] lay in the range of 100 to 1000 nM; on D816V Kit it was 1.01 to 10 nM.

Turning to `CC(C)(c1ccc(F)cc1)c1cnc(N2CCN(c3ncnc(Nc4cnn(C[C@@H]5CNCCO5)c4)n3)CC2)nc1` [Compound 267], the IC50 in assay [1] is 10 to 100 nM; at D816V Kit it was less than 1 nM.

On to `C[C@](O)(c1ccc(F)cc1)c1cnc(N2CCN(c3ncnc(Nc4cnn(C[C@@H]5CNCCO5)c4)n3)CC2)nc1` [Compound 269], for which the IC50 in assay [1] is 10 to 100 nM; on D816V Kit, less than 1 nM.

For the molecule `Cc1c(Nc2ncnc(N3CCN(c4ncc(Cc5ccccc5F)cn4)CC3)n2)cnn1C[C@@H]1CNCCO1` [Compound 272], the IC50 in assay [1] was 10 to 100 nM; at D816V Kit, less than 1 nM.

Take `Cc1c(Nc2ncnc(N3CCN(c4ncc(Sc5ccc(F)cc5)cn4)CC3)n2)cnn1C[C@@H]1CNCCO1` [Compound 273]: the IC50 was 10 to 100 nM in assay [1] and 1.01 to 10 nM at D816V Kit.

Take `C[C@](N)(c1ccc(F)cc1)c1cnc(N2CCN(c3ncnc(Nc4ccc(N5CCC[C@H](O)C5)cc4)n3)CC2)nc1` [Compound 275]: the IC50 in assay [1] was 10 to 100 nM; at D816V Kit, less than 1 nM.

For the molecule `Cc1c(Nc2ncnc(N3CCN(c4ncc([C@@](C)(O)c5ccc(F)cc5)cn4)CC3)n2)cnn1C[C@@H]1CNCCO1` [Compound 276], the IC50 fell in the range of 10 to 100 nM in assay [1] and 1.01 to 10 nM at D816V Kit.

In the case of `Cc1c(Nc2ncnc(N3CCN(c4ncc([C@](C)(O)c5ccc(F)cc5)cn4)CC3)n2)cnn1C[C@@H]1CNCCO1` [Compound 277], the IC50 in assay [1] was 10 to 100 nM; at D816V Kit, less than 1 nM.
